Source: US20170305922A1, “CARM1 INHIBITORS AND USES THEREOF” (Epizyme, Inc., priority 2014, published 2017)

Each compound was assayed against T1, Human CARM1 (PRMT4) (Homo sapiens, UniProt Q86X55) (assay: CARM1 enzyme assay on peptide substrates (3H-SAM Flashplate)). Details: Biochemical assay; CARM1 0.25 nM, 3H-SAM 30 nM, peptide 250 nM; read-out: Biochem IC50.
T1 construct: Flag-CARM1-His was eluted with 200 ug/ml FLAG peptide in buffer A; made in house; host or cells: HEK 293F cells infected with recombinant baculovirus (pFastBacMam)
T1 sequence (Q86X55 1-585 isoform Q86X55-1): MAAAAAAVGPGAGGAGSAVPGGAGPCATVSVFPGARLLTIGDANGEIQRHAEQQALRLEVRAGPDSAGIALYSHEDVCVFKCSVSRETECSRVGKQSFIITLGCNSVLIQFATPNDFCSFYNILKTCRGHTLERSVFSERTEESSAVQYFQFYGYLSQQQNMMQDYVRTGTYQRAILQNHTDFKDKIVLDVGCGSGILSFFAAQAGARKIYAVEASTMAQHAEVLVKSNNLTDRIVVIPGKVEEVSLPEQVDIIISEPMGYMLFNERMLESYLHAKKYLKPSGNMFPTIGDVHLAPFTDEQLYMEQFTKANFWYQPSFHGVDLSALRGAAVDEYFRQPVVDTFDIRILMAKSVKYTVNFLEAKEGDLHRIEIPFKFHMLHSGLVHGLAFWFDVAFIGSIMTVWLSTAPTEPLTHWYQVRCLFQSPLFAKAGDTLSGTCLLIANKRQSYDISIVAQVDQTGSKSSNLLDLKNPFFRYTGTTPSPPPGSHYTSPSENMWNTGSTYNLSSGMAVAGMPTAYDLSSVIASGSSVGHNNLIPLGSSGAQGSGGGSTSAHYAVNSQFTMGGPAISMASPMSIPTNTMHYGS

Compound	IC50 [nM]
CNC[C@@H](O)COc1ccc(Cl)c(-c2nc(-c3c(C)noc3C)c(C)c(N3Cc4ccc(OCC(F)F)nc4C3)n2)c1 [Example 273]	2.26
CNC[C@@H](O)COc1ccc(Cl)c(-c2nc(-c3c(C)c(Cl)nn3C)c(C)c(N3CC4(CC(OC(C)C)C4)C3)n2)c1 [Example 274]	5.03
CNC[C@@H](O)COc1ccc(Cl)c(-c2nc(-c3c(C)c(Br)nn3C)c(C)c(N3CC4(CC(OC(C)C)C4)C3)n2)c1 [Example 275]	3.53
CNC[C@@H](O)COc1ccc(Cl)c(-c2nc(-c3c(C)noc3C)c(C)c(N3CC4(CN(CCC#N)C4)C3)n2)c1 [Example 277]	8.24
CNC[C@@H](O)COc1ccc(Cl)c(-c2nc(-c3c(C)noc3C)c(C)c(N3CC4(CCC4F)C3)n2)c1 (stereo partly shown) [Example 278]	4.11
CNC[C@@H](O)COc1ccc(Cl)c(-c2nc(-c3c(C)noc3C)c(C)c(N3CC4(CC(N5CC(F)(F)C5)C4)C3)n2)c1 [Example 279]	5.75
CNC[C@@H](O)COc1ccc(Cl)c(-c2nc(-c3c(C)noc3C)c(C)c(N3CC4(CC(N5CC(F)C5)C4)C3)n2)c1 [Example 280]	2.09
CNC[C@@H](O)COc1ccc(Cl)c(-c2nc(-c3c(C)noc3C)c(C)c(N3CC4(CC(NC)C4)C3)n2)c1 [Example 282]	0.9
CNC[C@@H](O)COc1ccc(Cl)c(-c2nc(-c3c(C)c(Br)nn3C)c(C)c(N3CC4(CN(CC(F)F)C4)C3)n2)c1 [Example 284]	2.36
CNC[C@@H](O)COc1ccc(Cl)c(-c2nc(-c3c(C)c(Cl)nn3C)c(C)c(N3CC4(CN(CC(F)F)C4)C3)n2)c1 [Example 285]	2.4
CNC[C@@H](O)COc1ccc(Cl)c(-c2nc(-c3c(C)noc3C)c(C)c(N3CC(C#N)(COC)C3)n2)c1 [Example 286]	4.17
CNC[C@@H](O)COc1ccc(Cl)c(-c2nc(-c3c(C)noc3C)c(C)c(N3CC4(CCC4OC)C3)n2)c1 (stereo partly shown) [Example 288]	3.86
CNC[C@@H](O)COc1ccc(Cl)c(-c2nc(-c3c(C)c(Cl)nn3C)c(C)c(N3CC4(CCCN(C(=O)OC)C4)C3)n2)c1 [Example 295]	3.78
CNC[C@@H](O)COc1ccc(Cl)c(-c2nc(-c3c(C)noc3C)c(C)c(N3CC4(CCCN(C(=O)OC)C4)C3)n2)c1 [Example 296]	6.4
CNC[C@@H](O)COc1ccc(Cl)c(-c2nc(-c3c(C)c(Br)nn3C)c(C)c(N3CC4(CC(OCCC#N)C4)C3)n2)c1 [Example 297]	2.83

The next lines start with the values.

IC50 [nM]	Compound
5.43	CNC[C@@H](O)COc1ccc(Cl)c(-c2nc(-c3c(C)noc3C)c(C)c(N3CC4(C3)CC(OC)(OC)C4)n2)c1 [Example 272]
4.92	CNC[C@@H](O)COc1ccc(Cl)c(-c2nc(-c3c(C)noc3C)c(C)c(N3CC4(C3)CC3(C4)OCCO3)n2)c1 [Example 276]
1.04	CNC[C@@H](O)COc1ccc(Cl)c(-c2nc(-c3c(C)noc3C)c(C)c(N3CC4(CC(N(C)C5CC5)C4)C3)n2)c1 [Example 281]
5.67	CNC[C@@H](O)COc1ccc(Cl)c(-c2nc(-c3c(C)noc3C)c(C)c(N3CC4(C3)CN(C(C)C(F)(F)F)C4)n2)c1 (stereo partly shown) [Example 283]
4.46	CNC[C@@H](O)COc1ccc(Cl)c(-c2nc(-c3c(C)noc3C)c(C)c(N3CC4(CC(OCCC#N)C4)C3)n2)c1 [Example 287]
4.08	CNC[C@@H](O)COc1ccc(Cl)c(-c2nc(-c3c(C)noc3C)c(C)c(N3CC4(CC(N(C)CC(F)F)C4)C3)n2)c1 [Example 289]
3.39	CNC[C@@H](O)COc1ccc(Cl)c(-c2nc(-c3c(C)noc3C)c(C)c(N3CC4(CC(OCC(F)F)C4)C3)n2)c1 [Example 290]
1.42	CNC[C@H](O)COc1ccc(Cl)c(-c2nc(-c3c(C)noc3C)c(C)c(N3Cc4cccnc4C3)n2)c1 [Example 293]

Each compound was assayed on asymmetric di-methyl PABP1 in RKO cells (assay: RKO methylation assay: In Cell Western (ICW) for asymmetric di-methyl PABP1 (PABP1me2a)). Details: Cellular-based (PABP1me2a) ICW (In Cell Western) assay, 48 hours.
Procedure, shortened: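 In-cell western on compound-exposed RKO cells (48 hours): asymmetric di-methyl PABP1 detected by antibody at 800 nm, DNA content by DRAQ5 at 700 nm. Percent inhibition from signal ratios against DMSO (minimum) and 20 μM reference compound (maximum) wells; IC50 curves fitted from triplicates.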

IC50 [nM]	Compound
38.2	CNC[C@@H](O)COc1ccc(Cl)c(-c2nc(-c3c(C)noc3C)c(C)c(N3CC4(CC(OCC(F)F)C4)C3)n2)c1 [Example 290]

Same assay, conditions: Homo sapiens, RKO, 48 h, Cellular-based (PABP1me2a) ICW (In Cell Western) assay

Compound	IC50 [nM]
CNC[C@@H](O)COc1ccc(Cl)c(-c2nc(-c3c(C)noc3C)c(C)c(N3Cc4ccc(OCC(F)F)nc4C3)n2)c1 [Example 273]	61.9
CNC[C@@H](O)COc1ccc(Cl)c(-c2nc(-c3c(C)c(Cl)nn3C)c(C)c(N3CC4(CC(OC(C)C)C4)C3)n2)c1 [Example 274]	48.8
CNC[C@@H](O)COc1ccc(Cl)c(-c2nc(-c3c(C)c(Br)nn3C)c(C)c(N3CC4(CC(OC(C)C)C4)C3)n2)c1 [Example 275]	45
CNC[C@@H](O)COc1ccc(Cl)c(-c2nc(-c3c(C)noc3C)c(C)c(N3CC4(CN(CCC#N)C4)C3)n2)c1 [Example 277]	1470
CNC[C@@H](O)COc1ccc(Cl)c(-c2nc(-c3c(C)noc3C)c(C)c(N3CC4(CCC4F)C3)n2)c1 (stereo partly shown) [Example 278]	544
CNC[C@@H](O)COc1ccc(Cl)c(-c2nc(-c3c(C)noc3C)c(C)c(N3CC4(CC(N5CC(F)(F)C5)C4)C3)n2)c1 [Example 279]	54.2
CNC[C@@H](O)COc1ccc(Cl)c(-c2nc(-c3c(C)noc3C)c(C)c(N3CC4(CC(N5CC(F)C5)C4)C3)n2)c1 [Example 280]	105
CNC[C@@H](O)COc1ccc(Cl)c(-c2nc(-c3c(C)noc3C)c(C)c(N3CC4(CC(NC)C4)C3)n2)c1 [Example 282]	2210
CNC[C@@H](O)COc1ccc(Cl)c(-c2nc(-c3c(C)c(Br)nn3C)c(C)c(N3CC4(CN(CC(F)F)C4)C3)n2)c1 [Example 284]	39.2
CNC[C@@H](O)COc1ccc(Cl)c(-c2nc(-c3c(C)c(Cl)nn3C)c(C)c(N3CC4(CN(CC(F)F)C4)C3)n2)c1 [Example 285]	46.1
CNC[C@@H](O)COc1ccc(Cl)c(-c2nc(-c3c(C)noc3C)c(C)c(N3CC(C#N)(COC)C3)n2)c1 [Example 286]	282
CNC[C@@H](O)COc1ccc(Cl)c(-c2nc(-c3c(C)noc3C)c(C)c(N3CC4(CCC4OC)C3)n2)c1 (stereo partly shown) [Example 288]	234
CNC[C@@H](O)COc1ccc(Cl)c(-c2nc(-c3c(C)c(Cl)nn3C)c(C)c(N3CC4(CCCN(C(=O)OC)C4)C3)n2)c1 [Example 295]	82.7
CNC[C@@H](O)COc1ccc(Cl)c(-c2nc(-c3c(C)noc3C)c(C)c(N3CC4(CCCN(C(=O)OC)C4)C3)n2)c1 [Example 296]	137
CNC[C@@H](O)COc1ccc(Cl)c(-c2nc(-c3c(C)c(Br)nn3C)c(C)c(N3CC4(CC(OCCC#N)C4)C3)n2)c1 [Example 297]	39.4

Second part, the compound after the results:

IC50 [nM]	Compound
79	CNC[C@@H](O)COc1ccc(Cl)c(-c2nc(-c3c(C)noc3C)c(C)c(N3CC4(C3)CC(OC)(OC)C4)n2)c1 [Example 272]
75.7	CNC[C@@H](O)COc1ccc(Cl)c(-c2nc(-c3c(C)noc3C)c(C)c(N3CC4(C3)CC3(C4)OCCO3)n2)c1 [Example 276]
79.2	CNC[C@@H](O)COc1ccc(Cl)c(-c2nc(-c3c(C)noc3C)c(C)c(N3CC4(CC(N(C)C5CC5)C4)C3)n2)c1 [Example 281]
48.4	CNC[C@@H](O)COc1ccc(Cl)c(-c2nc(-c3c(C)noc3C)c(C)c(N3CC4(C3)CN(C(C)C(F)(F)F)C4)n2)c1 (stereo partly shown) [Example 283]
69.1	CNC[C@@H](O)COc1ccc(Cl)c(-c2nc(-c3c(C)noc3C)c(C)c(N3CC4(CC(OCCC#N)C4)C3)n2)c1 [Example 287]
76	CNC[C@@H](O)COc1ccc(Cl)c(-c2nc(-c3c(C)noc3C)c(C)c(N3CC4(CC(N(C)CC(F)F)C4)C3)n2)c1 [Example 289]
155	CNC[C@H](O)COc1ccc(Cl)c(-c2nc(-c3c(C)noc3C)c(C)c(N3Cc4cccnc4C3)n2)c1 [Example 293]
